Patent US11413261B2, “Pharmaceutical composition for treating cancer comprising lactate metal salt” (METIMEDI PHARMACEUTICALS CO., LTD, priority 2014, dated 2022)

Assays:
[1] = tested on: human colorectal cancer cell lines (HT-29 and HCT-116); assay: Colony-forming ability, anticancer drug in combination with calcium lactate (6-well plates); assay type: cell-based; settings: vs control
Method: Human colorectal cancer cell lines (HT-29 and HCT-116) with the cell number of 1×10^3 cells were seeded into an RPMI1640 medium in each of 6-well plates. After one day, the medium was replaced with fresh medium and the cells were treated with 2.5 mM calcium lactate or 1 μM, 2.5 μM, and 5 μM Imatinib alone or treated with various concentrations (1 μM, 2.5 μM, and 5 μM) of Imatinib in combination with 2.5 mM calcium lactate. Then, the colony-forming abilities of the cells were compared. In this case, human colorectal cancer cell lines (HT-29 and HCT-116) untreated with any drug were used as control groups (FIGS. 38a, 38b, 39a and 39b).
Human colorectal cancer cell lines (HT-29 and HCT-116) with the cell number of 1×10^3 cells were seeded into an RPMI1640 medium in each of 6-well plates. After one day, the medium was replaced with fresh medium and the cells were treated with 2.5 mM calcium lactate or 2.5 μM, 5 μM, and 10 μM 5-FU alone or treated with various concentrations (2.5 μM, 5 μM, and 10 μM) of 5-FU in combination with 2.5 mM calcium lactate. Then, the colony-forming abilities of the cells were compared. In this case, human colorectal cancer cell lines (HT-29 and HCT-116) untreated with any drug were used as control groups (FIGS. 40a, 40 b, 41a and 41b).

[2] = tested on: human colorectal cancer cell line HCT-116; settings: 5 mM CA individually, 10 days
[3] = tested on: human lung cancer cell line (A549); assay: Colony-forming ability, anticancer drug in combination with calcium lactate (6-well plates); assay type: cell-based; settings: vs control
Method: Human breast cancer cell line (MCF-7) and a human lung cancer cell line (A549) with the cell number of 1×10^3 cells were seeded into an RPMI1640 medium in each of 6-well plates. […]. Then, the colony-forming abilities of the cells were compared. In this case, a human breast cancer cell line (MCF-7) and a human lung cancer cell line (A549) untreated with any drug were used as control groups (FIGS. 42a, 42b, 43a and 43b).
(§1) Human lung cancer cell line (A549) with the cell number of 1×10^3 cells were seeded into an RPMI1640 medium in each of 6-well plates. […]. Then, the colony-forming abilities of the cells were compared. In this case, a human lung cancer cell line (A549) untreated with any drug was used as a control group (FIGS. 44a and 44b).
as §1, with “47a” for “44a”, “47b).” for “44b).”
as §1, with “49a” for “44a”, “49b).” for “44b).”
as §1, with “50a” for “44a”, “50b).” for “44b).”
as §1, with “51a” for “44a”, “51b).” for “44b).”

[4] = tested on: human kidney cancer cell line (Caki-1); assay: as above; assay type: cell-based; settings: 0.3, 0.5, 1 nM Everolimus alone, vs control
Method: Human kidney cancer cell line (Caki-1) with the cell number of 1×10^3 cells were seeded into an RPMI1640 medium in each of 6-well plates. After one day, the medium was replaced with fresh medium and the cells were treated with 0.3 nM, 0.5 nM, and 1 nM Everolimus alone or treated with various concentrations (0.3 nM, 0.5 nM, and 1 nM) of Everolimus in combination with 2.5 mM calcium lactate. Then, the colony-forming abilities of the cells were compared. In this case, a human kidney cancer cell line (Caki-1) untreated with any drug was used as a control group (FIGS. 53a and 53b).

[5] = tested on: human colorectal cancer cell line (HT-29); assay: as above; assay type: cell-based; settings: vs control
Method: as §1, with “colorectal” for “lung”, “(HT-29)” for “(A549)”, “46a” for “44a”, “46b).” for “44b).”
as §1, with “colorectal” for “lung”, “(HT-29)” for “(A549)”, “48a” for “44a”, “48b).” for “44b).”
as §1, with “colorectal” for “lung”, “(HT-29)” for “(A549)”, “(FIG. 55).” for “(FIGS. 44a and 44b).”

[6] = tested on: human breast cancer cell line (MCF-7); assay: as above; assay type: cell-based; settings: vs control
Method: Human breast cancer cell line (MCF-7) and a human lung cancer cell line (A549) with the cell number of 1×10^3 cells were seeded into an RPMI1640 medium in each of 6-well plates. […] Then, the colony-forming abilities of the cells were compared. In this case, a human breast cancer cell line (MCF-7) and a human lung cancer cell line (A549) untreated with any drug were used as control groups (FIGS. 42a, 42b, 43a and 43b).
Human breast cancer cell line (MCF-7) with the cell number of 1×10^3 cells were seeded into an RPMI1640 medium in each of 6-well plates. After one day, the medium was replaced with fresh medium and the cells were treated with 2.5 mM calcium lactate or 2 μM, 4 μM, and 8 μM Lapatinib alone or treated with various concentrations (2 μM, 4 μM, and 8 μM) of Lapatinib in combination with 2.5 mM calcium lactate. Then, the colony-forming abilities of the cells were compared. In this case, a human breast cancer cell line (MCF-7) untreated with any drug was used as a control group (FIGS. 52a and 52b).

[7] = tested on: human liver cancer cell line (Hep3B); assay: as above; assay type: cell-based; settings: 1, 2.5, 5 μM Sorafenib alone, vs control
Method: Human liver cancer cell line (Hep3B) with the cell number of 1×10^3 cells were seeded into an RPMI1640 medium in each of 6-well plates. After one day, the medium was replaced with fresh medium and the cells were treated with 2.5 mM calcium lactate or 1 μM, 2.5 μM, and 5 μM Sorafenib alone or treated with various concentrations (1 μM, 2.5 μM, and 5 μM) of Sorafenib in combination with 2.5 mM calcium lactate. Then, the colony-forming abilities of the cells were compared. In this case, a human liver cancer cell line (Hep3B) untreated with any drug was used as a control group (FIGS. 45a and 45b).

[8] = tested on: human vascular endothelial cell (HUVEC); assay: Tube formation of HUVEC in culture supernatants of treated cancer cell lines; assay type: cell-based; settings: HUVEC treated with Sulforaphane (comparison group)
From the text: A human vascular endothelial cell (HUVEC) was inoculated into each of the obtained culture supernatant and cultured to analyze a conformational change of cells (FIG. 17). In this case, an HUVEC cultured using the culture medium of a cancer cell line cultured without treating with calcium lactate was used as a control group, and an HUVEC cultured with the treatment with Sulforaphane, which is a growth inhibitor of an HUVEC, was used as a comparison group.

cancer cell = assay: Dissociation of metal lactate salts to lactate in a cancer cell; assay type: cell-based
[9] = 0.63, 1.3, 2.5 nM Paclitaxel alone

SMILES: O=c1[nH]cc(F)c(=O)[nH]1 [5-FU]
- colony-forming ability ([1]; 2.5, 5, 10 μM 5-FU alone): suppressed

SMILES: O=C(O)C=Cc1ccccc1 [CA, cinnamic acid, reference compound]
- survival rate [2]: about 60%

SMILES: N.N.O=C([O-])C1(C(=O)[O-])CCC1.[Pt+2] [Carboplatin]
- colony-forming ability ([3]; 2.5, 5, 10 μM Carboplatin alone): suppressed

SMILES: CC(=O)O[C@@]12CO[C@@H]1C[C@H](O)[C@@]1(C)C(=O)[C@H](O)C3=C(C)[C@@H](OC(=O)[C@H](O)[C@@H](NC(=O)OC(C)(C)C)c4ccccc4)C[C@@](O)([C@@H](OC(=O)c4ccccc4)[C@H]21)C3(C)C [Docetaxel]
- colony-forming ability ([3]; 0.6, 1.3, 2.5 nM Docetaxel alone): suppressed

SMILES: C#Cc1cccc(Nc2ncnc3cc(OCCOC)c(OCCOC)cc23)c1 [Erlotinib]
- colony-forming ability ([3]; 0.5, 1, 2 μM Erlotinib alone): suppressed

SMILES: CO[C@H]1C[C@@H]2CC[C@@H](C)[C@@](O)(O2)C(=O)C(=O)N2CCCC[C@H]2C(=O)O[C@H]([C@H](C)C[C@@H]2CC[C@@H](OCCO)[C@H](OC)C2)CC(=O)[C@H](C)/C=C(\C)[C@@H](O)[C@@H](OC)C(=O)[C@H](C)C[C@H](C)/C=C/C=C/C=C/1C [Everolimus, reference compound]
- colony-forming ability [4]: suppressed

SMILES: COc1cc2ncnc(Nc3ccc(F)c(Cl)c3)c2cc1OCCCN1CCOCC1 [Gefitinib]
- colony-forming ability ([3]; 1.3, 2.5, 5 μM Gefitinib alone): suppressed

SMILES: Cc1ccc(NC(=O)c2ccc(CN3CCN(C)CC3)cc2)cc1Nc1nccc(-c2cccnc2)n1 [Imatinib]
- colony-forming ability ([1]; 1, 2.5, 5 μM Imatinib alone): suppressed

SMILES: CCc1c2c(nc3ccc(OC(=O)N4CCC(N5CCCCC5)CC4)cc13)-c1cc3c(c(=O)n1C2)COC(=O)[C@]3(O)CC [Irinotecan]
- colony-forming ability ([5]; 0.5, 1, 2 μM Irinotecan alone): suppressed

SMILES: CS(=O)(=O)CCNCc1ccc(-c2ccc3ncnc(Nc4ccc(OCc5cccc(F)c5)c(Cl)c4)c3c2)o1 [Lapatinib]
- colony-forming ability ([6]; 2, 4, 8 μM Lapatinib alone): suppressed

SMILES: CN(Cc1cnc2nc(N)nc(N)c2n1)c1ccc(C(=O)N[C@@H](CCC(=O)O)C(=O)O)cc1 [Methotrexate]
- colony-forming ability ([3]; 5, 10, 20 nM Methotrexate alone): suppressed

SMILES: O=C1[O][Pt]2([NH][C@@H]3CCCC[C@H]3[NH]2)[O]C1=O [Oxaliplatin]
- colony-forming ability ([5]; 1.3, 2.5, 5 μM Oxaliplatin alone): suppressed

SMILES: CC(=O)O[C@H]1C(=O)[C@@]2(C)[C@H]([C@H](OC(=O)c3ccccc3)[C@]3(O)C[C@H](OC(=O)[C@H](O)[C@@H](NC(=O)c4ccccc4)c4ccccc4)C(C)=C1C3(C)C)[C@]1(OC(C)=O)CO[C@@H]1C[C@@H]2O [Paclitaxel]
- colony-forming ability [6, 9]: suppressed
- colony-forming ability [3, 9]: suppressed

SMILES: CNC(=O)c1cc(Oc2ccc(NC(=O)Nc3ccc(Cl)c(C(F)(F)F)c3)cc2)ccn1 [Sorafenib, reference compound]
- colony-forming ability [7]: suppressed

SMILES: C[S+]([O-])CCCCN=C=S (stereo not drawn) [Sulforaphane, reference compound]
- tube-forming ability of HUVEC [8]: reduced tube-forming ability

SMILES: CC(O)C(=O)[O-].[K+] (stereo not drawn) [potassium lactate]
- dissociation to lactate in a cancer cell (cancer cell): can be dissociated to lactate

SMILES: CC(O)C(=O)[O-].[Na+] (stereo not drawn) [sodium lactate]
- dissociation to lactate in a cancer cell (cancer cell): can be dissociated to lactate
